Values joined by “and” are separate entries in the source; they are usually repeats but may differ in a detail not shown here. Equal values may be shown once.
How the values were obtained:
Assay in all cases: PamChip tyrosine kinase microarray
Type in all cases: biochemical
Details in all cases: 0.1 µM, HL60 lysate
[1] = molecular target: T1, TRKA (P04629) (Homo sapiens, UniProt P04629)
T1 construct: purchased PamGene (PamChip PTK array, Upstream Kinase Analysis)
Method in brief: (§1)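 HL60 (AML) cell lysate was spiked with compound at 0.001, 0.01, 0.1, 1, 10 and 50 µM, or 2% v/v DMSO as control, then profiled in technical replicates on a tyrosine kinase peptide array of 196 phosphosites. Kinase activity was inferred from peptide-set changes using an upstream kinase tool.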

[2] = molecular target: T2, Tyro3/Sky (Q06418) (Homo sapiens, UniProt Q06418)
T2 construct: purchased PamGene (PamChip PTK array, Upstream Kinase Analysis)
T2 sequence (Q06418 41-890): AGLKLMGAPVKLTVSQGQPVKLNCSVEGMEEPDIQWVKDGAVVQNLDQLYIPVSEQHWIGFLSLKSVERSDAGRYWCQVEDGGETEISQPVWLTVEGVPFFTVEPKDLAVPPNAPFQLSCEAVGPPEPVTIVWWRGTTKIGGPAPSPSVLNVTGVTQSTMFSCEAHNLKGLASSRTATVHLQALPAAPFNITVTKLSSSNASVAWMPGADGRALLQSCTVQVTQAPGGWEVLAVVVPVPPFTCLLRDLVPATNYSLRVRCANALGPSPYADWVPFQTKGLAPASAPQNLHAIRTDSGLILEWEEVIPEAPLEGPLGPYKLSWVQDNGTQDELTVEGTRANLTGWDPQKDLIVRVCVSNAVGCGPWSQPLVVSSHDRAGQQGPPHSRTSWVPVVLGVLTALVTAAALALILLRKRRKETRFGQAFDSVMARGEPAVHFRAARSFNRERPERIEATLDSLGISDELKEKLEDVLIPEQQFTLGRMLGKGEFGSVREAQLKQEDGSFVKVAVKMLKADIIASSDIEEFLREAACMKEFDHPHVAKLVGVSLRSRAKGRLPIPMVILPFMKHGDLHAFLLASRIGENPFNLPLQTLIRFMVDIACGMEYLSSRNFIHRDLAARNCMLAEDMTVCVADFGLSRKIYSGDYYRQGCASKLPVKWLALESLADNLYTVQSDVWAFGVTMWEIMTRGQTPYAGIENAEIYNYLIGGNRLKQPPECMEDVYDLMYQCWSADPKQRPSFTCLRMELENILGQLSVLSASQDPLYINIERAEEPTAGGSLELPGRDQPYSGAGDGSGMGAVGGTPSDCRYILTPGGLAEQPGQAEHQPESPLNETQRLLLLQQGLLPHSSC
Method in brief: as §1

[3] = molecular target: T3, FGFR4 (P22455) (Homo sapiens, UniProt P22455)
T3 construct: purchased PamGene (PamChip PTK array, Upstream Kinase Analysis)
Method in brief: as §1

[4] = molecular target: T4, Syk (P43405) (Homo sapiens, UniProt P43405)
T4 construct: purchased PamGene (PamChip PTK array, Upstream Kinase Analysis)
Method in brief: as §1

[5] = molecular target: T5, EphA7 (Q15375) (Homo sapiens, UniProt Q15375)
T5 construct: purchased PamGene (PamChip PTK array, Upstream Kinase Analysis)
Method in brief: as §1

[6] = molecular target: T6, HER4 (Q15303) (Homo sapiens, UniProt Q15303)
T6 construct: purchased PamGene (PamChip PTK array, Upstream Kinase Analysis)
Method in brief: as §1

[7] = molecular target: T7, InSR (P06213) (Homo sapiens, UniProt P06213)
T7 construct: purchased PamGene (PamChip PTK array, Upstream Kinase Analysis)
Method in brief: as §1

T1 sequence (P04629 33-796): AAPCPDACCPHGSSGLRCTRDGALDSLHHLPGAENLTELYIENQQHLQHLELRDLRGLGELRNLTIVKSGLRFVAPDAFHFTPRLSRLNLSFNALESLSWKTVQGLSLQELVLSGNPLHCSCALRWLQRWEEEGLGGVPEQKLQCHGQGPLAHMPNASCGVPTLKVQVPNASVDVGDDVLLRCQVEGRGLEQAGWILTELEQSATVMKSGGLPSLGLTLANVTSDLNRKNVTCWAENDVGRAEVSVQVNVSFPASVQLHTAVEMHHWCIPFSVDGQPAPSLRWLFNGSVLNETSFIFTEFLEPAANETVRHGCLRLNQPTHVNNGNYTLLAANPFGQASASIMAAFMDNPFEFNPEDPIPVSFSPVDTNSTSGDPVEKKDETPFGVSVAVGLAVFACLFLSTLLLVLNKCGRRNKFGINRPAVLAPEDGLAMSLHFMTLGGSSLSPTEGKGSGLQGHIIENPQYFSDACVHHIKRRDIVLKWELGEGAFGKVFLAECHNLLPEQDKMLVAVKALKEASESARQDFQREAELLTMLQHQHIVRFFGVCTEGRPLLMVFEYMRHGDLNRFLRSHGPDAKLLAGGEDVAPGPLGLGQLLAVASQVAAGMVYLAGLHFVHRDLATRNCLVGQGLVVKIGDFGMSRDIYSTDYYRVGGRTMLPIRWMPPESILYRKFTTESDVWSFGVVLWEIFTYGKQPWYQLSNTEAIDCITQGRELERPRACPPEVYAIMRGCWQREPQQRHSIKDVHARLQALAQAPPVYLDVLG
T6 sequence (Q15303 26-1308): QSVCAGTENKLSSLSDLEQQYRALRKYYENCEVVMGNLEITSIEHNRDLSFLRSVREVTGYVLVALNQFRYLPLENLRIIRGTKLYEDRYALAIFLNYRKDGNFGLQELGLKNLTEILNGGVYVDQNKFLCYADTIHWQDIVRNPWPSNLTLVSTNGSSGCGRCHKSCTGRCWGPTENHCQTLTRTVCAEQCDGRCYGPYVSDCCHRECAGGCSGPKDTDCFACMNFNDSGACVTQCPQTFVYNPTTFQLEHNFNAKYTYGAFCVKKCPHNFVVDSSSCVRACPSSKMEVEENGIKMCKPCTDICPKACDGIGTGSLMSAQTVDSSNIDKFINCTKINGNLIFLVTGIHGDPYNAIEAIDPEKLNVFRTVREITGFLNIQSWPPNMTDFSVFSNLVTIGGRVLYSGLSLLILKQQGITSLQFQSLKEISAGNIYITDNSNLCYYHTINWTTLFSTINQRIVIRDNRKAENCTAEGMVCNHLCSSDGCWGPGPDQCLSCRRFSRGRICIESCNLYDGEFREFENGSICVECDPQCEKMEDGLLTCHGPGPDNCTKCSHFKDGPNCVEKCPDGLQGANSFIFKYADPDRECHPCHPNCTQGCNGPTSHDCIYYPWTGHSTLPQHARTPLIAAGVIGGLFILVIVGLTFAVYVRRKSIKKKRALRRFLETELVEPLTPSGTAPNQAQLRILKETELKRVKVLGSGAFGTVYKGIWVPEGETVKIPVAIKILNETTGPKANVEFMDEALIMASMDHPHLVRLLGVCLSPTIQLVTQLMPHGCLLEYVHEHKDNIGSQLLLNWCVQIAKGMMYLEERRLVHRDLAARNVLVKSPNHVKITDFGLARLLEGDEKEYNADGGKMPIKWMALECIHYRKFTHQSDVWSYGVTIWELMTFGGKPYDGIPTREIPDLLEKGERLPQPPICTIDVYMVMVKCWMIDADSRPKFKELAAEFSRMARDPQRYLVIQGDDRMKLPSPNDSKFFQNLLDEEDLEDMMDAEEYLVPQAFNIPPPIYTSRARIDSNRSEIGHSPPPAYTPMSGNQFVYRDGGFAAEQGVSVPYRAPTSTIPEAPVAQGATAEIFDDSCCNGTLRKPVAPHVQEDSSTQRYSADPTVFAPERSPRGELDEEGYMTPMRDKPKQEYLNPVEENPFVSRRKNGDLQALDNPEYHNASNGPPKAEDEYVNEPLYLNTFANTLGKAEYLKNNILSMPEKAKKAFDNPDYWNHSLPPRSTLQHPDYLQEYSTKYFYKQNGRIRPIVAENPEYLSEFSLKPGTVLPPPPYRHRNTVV
T7 sequence (P06213 28-1382): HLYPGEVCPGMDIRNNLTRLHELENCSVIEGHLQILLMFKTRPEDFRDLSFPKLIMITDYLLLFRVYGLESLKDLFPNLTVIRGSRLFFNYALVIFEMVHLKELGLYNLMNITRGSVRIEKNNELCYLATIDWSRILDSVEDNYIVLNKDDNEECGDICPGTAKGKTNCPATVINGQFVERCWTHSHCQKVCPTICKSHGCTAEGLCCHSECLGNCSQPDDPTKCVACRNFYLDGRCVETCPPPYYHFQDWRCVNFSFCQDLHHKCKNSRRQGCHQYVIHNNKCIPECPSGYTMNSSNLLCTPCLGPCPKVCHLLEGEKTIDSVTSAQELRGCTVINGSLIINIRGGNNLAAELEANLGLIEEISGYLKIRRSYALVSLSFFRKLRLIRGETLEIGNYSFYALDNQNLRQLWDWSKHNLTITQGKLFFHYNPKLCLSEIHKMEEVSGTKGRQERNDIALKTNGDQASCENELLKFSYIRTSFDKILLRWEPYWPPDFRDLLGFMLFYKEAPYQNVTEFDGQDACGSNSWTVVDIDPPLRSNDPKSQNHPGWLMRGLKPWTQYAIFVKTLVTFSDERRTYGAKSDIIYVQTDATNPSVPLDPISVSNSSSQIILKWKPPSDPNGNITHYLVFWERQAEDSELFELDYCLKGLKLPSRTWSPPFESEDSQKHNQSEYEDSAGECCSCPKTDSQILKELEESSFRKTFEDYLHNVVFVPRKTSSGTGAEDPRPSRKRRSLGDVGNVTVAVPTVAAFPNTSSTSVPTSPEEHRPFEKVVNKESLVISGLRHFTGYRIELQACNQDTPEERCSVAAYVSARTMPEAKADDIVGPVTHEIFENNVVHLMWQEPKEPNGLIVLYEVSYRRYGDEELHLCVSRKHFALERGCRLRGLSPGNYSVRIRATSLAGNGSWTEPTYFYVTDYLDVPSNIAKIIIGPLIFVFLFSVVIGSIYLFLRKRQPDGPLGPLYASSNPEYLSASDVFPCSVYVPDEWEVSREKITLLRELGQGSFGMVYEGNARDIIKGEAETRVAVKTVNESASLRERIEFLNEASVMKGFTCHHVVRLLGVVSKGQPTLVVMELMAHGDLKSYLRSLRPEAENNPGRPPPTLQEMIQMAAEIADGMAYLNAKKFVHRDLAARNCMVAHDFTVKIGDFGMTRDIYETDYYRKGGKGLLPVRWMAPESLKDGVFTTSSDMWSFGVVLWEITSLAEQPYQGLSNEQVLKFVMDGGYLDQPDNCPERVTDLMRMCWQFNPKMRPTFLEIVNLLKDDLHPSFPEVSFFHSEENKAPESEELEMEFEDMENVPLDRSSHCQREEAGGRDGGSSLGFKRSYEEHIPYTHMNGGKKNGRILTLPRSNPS
T3 sequence (P22455 22-802): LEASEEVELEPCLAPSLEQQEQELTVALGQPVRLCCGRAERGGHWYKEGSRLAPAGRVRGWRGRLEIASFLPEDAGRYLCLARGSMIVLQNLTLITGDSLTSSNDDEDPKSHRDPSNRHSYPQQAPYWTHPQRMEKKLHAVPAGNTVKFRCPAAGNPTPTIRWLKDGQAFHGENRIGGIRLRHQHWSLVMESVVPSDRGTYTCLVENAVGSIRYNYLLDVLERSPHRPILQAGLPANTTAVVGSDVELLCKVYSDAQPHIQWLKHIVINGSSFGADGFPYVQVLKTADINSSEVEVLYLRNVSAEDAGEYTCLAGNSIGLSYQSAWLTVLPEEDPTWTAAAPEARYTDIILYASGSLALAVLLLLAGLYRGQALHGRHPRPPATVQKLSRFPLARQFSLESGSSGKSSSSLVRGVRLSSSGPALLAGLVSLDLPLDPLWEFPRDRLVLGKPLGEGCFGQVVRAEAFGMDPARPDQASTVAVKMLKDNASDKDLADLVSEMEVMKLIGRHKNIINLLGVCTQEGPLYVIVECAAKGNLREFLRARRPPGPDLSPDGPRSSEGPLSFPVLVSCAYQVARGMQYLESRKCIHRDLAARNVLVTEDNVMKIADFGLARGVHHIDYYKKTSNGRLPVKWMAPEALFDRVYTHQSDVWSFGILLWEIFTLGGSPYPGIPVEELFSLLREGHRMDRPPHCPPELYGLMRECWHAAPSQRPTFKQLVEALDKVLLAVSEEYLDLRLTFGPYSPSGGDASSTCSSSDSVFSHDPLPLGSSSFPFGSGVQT

COc1ccc(/C=C2\N=C(C)N(c3ccc(CC(=O)NCc4ccccc4)cc3)C2=O)cc1 [Compound 4c, (Z)-N-Benzyl-2-(4-(4-(4-methoxybenzylidene)-2-methyl-5-oxo-4,5-dihydro-1H-imidazol-1-yl)phenyl)acetamide]
Mean Final score (Kinase score) [1]: 2.339
Mean Kinase Statistic [1]: -1.138
Mean Significance Score [1]: 2.048
Mean Specificity Score [1]: 0.2694
Mean Significance Score [2]: 2.048
Mean Specificity Score [2]: 1.177
Mean Final score (Kinase score) ([2]; listed as KIM-161): 3.29 and 3.287
Mean Significance Score [3]: 2.023
Mean Specificity Score [3]: 0.5516
Mean Final score (Kinase score) ([3]; listed as KIM-161): 2.73 and 2.7333
Mean Final score (Kinase score) [4]: 2.113
Mean Kinase Statistic [4]: -1.091
Mean Significance Score [4]: 2.048
Mean Specificity Score [4]: 0.02997
Mean Final score (Kinase score) [5]: 0.8806
Mean Kinase Statistic [5]: -0.6736
Mean Significance Score [5]: 0.8204
Mean Specificity Score [5]: 0.0595
Mean Final score (Kinase score) [6]: 2.227
Mean Kinase Statistic [6]: -1.109
Mean Significance Score [6]: 2.048
Mean Specificity Score [6]: 0.2042
Mean Final score (Kinase score) [7]: 2.117
Mean Kinase Statistic [7]: -0.9506
Mean Significance Score [7]: 2.048
Mean Specificity Score [7]: 0.02144
